Results from US12115247B2, “Structured orodispersible films” (LTS LOHMANN THERAPIE-SYSTEME AG, priority 2017, dated 2024).

Test: Loading of porous orodispersible film with anthraquinone suspension (coating cycles)
Assay type: physicochemical
Excerpt: For these tests an anthraquinone suspension (x50=400 nm) was used. These contained, in addition to the anthraquinone, also HPC as stabiliser in a concentration of cHPC=0.25 (in relation to the total quantity of anthraquinone in the suspension). The concentration of the suspension was varied in a range of from 0.05 to 0.2, and the suspension was applied between one and five times to the film. The suspension was applied to the film surface via an application nozzle with a volume of […] at a rate of 220 mm/min. The film used for the tests was a film with cHPC=0.28, as described in Example 1. The loading with anthraquinone was determined for each of the obtained films.

Structure (SMILES): O=C1c2ccccc2C(=O)c2ccccc21 [anthraquinone]
- anthraquinone loading (film cHPC=0.28, anthraquinone concentration of 0.2, five coating cycles): 4.9 mg/cm^2
- highest loading (film cHPC=0.28, anthraquinone concentration of 0.2, five coating cycles, suspension also contains HPC stabiliser): 6.1 mg/cm^2
- maximum active ingredient loading (per standard orodispersible film of 6 cm^2): approximately 30 mg
